Data as given in patent US11612604B2, “Methods of treating cancer with PLK4 inhibitors” (LUDWIG INSTITUTE FOR CANCER RESEARCH LTD, priority 2017, dated 2023).

molecular target: T1, PLK4 (Homo sapiens, UniProt O00444); assay: Activity (IC50) of the Table 1 compounds as PLK4 inhibitors; type: biochemical; conditions: Table 1, IC50 class
T1 sequence (O00444 1-970): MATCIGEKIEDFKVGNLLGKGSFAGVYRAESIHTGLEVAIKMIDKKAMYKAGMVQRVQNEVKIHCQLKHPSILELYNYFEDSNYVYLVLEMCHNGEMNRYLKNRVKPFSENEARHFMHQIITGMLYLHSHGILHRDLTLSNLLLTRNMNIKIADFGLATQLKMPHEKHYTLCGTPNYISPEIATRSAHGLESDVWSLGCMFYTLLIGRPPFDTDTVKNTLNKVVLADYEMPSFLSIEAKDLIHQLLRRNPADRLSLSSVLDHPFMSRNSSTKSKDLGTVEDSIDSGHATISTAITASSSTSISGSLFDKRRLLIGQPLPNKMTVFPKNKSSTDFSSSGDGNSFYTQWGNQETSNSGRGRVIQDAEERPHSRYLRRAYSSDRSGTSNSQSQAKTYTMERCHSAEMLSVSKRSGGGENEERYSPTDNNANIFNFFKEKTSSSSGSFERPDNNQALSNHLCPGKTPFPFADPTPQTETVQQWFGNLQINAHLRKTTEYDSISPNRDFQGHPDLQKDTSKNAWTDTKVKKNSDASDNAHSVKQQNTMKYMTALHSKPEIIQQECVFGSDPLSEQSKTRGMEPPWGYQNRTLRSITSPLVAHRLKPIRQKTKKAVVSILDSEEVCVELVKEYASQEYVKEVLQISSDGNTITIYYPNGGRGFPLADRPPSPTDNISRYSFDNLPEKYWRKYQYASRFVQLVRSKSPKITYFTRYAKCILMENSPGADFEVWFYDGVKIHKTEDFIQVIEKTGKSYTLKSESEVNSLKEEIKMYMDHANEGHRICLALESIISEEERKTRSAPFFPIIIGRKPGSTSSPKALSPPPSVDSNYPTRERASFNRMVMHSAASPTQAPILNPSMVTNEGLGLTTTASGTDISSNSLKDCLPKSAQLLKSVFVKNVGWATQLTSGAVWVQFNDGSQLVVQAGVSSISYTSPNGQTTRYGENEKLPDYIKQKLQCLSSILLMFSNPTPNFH

IC50, < 100 nM:
Cc1cc(Nc2nc(Sc3ccc(NC(=O)C4CC4)cc3)nc(C)c2C)n[nH]1
CC(=O)Nc1ccc(Sc2nc3c(c(Nc4cc(C)[nH]n4)n2)C(C)CC3)cc1 (stereo not shown)
Cc1cc(Nc2nc(Sc3ccc(NC(=O)C4CCCC4)cc3)nc3c2C(C)CC3)n[nH]1 (stereo not shown)
COc1c(Nc2cc(C)[nH]n2)nc(Sc2ccc(NC(=O)C3CC3)cc2)nc1N1CCN(C(C)C)CC1
COc1c(Nc2cc(C)[nH]n2)nc(Sc2ccc(NC(=O)C3CC3)cc2)nc1N1CCN(C(C)=O)CC1
CCN1CCN(c2nc(Sc3ccc(NC(=O)C4CC4)cc3)nc(Nc3cc(C)[nH]n3)c2OC)CC1
COc1c(Nc2cc(C)[nH]n2)nc(Sc2ccc(S(=O)(=O)C(C)(C)c3cccc([N+](=O)[O-])c3F)cc2F)nc1N(C)C
COc1c(Nc2cc(C)[nH]n2)nc(Sc2ccc(S(=O)(=O)C(C)(C)c3cccc([N+](=O)[O-])c3F)cc2F)nc1N1CCC(CCNC(C)=O)CC1
COc1ccc(CN(C)CCC2CCN(c3nc(Sc4ccc(S(=O)(=O)C(C)(C)c5cc(Cl)cc([N+](=O)[O-])c5F)cc4F)nc(Nc4cc(C)[nH]n4)c3OC)CC2)cc1
COc1c(Nc2cc(C)[nH]n2)nc(Sc2ccc(S(=O)(=O)C(C)(C)c3c(F)c(F)cc(F)c3F)cc2F)nc1N1CCC(N(C)C)CC1
COc1c(Nc2cc(C)[nH]n2)nc(Sc2ccc(S(=O)(=O)Cc3c(F)c(F)cc(Cl)c3F)cc2F)nc1N1CCOCC1
COc1c(Nc2cc(C)[nH]n2)nc(Sc2ccc(S(=O)(=O)Cc3c(F)c(F)cc(Cl)c3F)cc2F)nc1N1CCN(CCN(C)C)CC1
COc1c(Nc2cc(C)[nH]n2)nc(Sc2ccc(S(=O)(=O)Cc3c(F)c(F)cc(Cl)c3F)cc2F)nc1N1CCC(CCN(C)C)CC1
COC(=O)CC1CCN(c2nc(Sc3ccc(S(=O)(=O)C(C)(C)c4cccc([N+](=O)[O-])c4F)cc3F)nc(Nc3cc(C)[nH]n3)c2OC)CC1
COc1c(Nc2cc(C)[nH]n2)nc(Sc2ccc(S(=O)(=O)C(C)(C)c3cccc([N+](=O)[O-])c3F)cc2F)nc1N1CCC(CC(=O)O)CC1
COc1c(Nc2cc(C)[nH]n2)nc(Sc2ccc(S(=O)(=O)C(C)(C)c3cccc([N+](=O)[O-])c3F)cc2F)nc1N1CCC(N(C)C)C1 (stereo not shown)
COc1c(Nc2cc(C)[nH]n2)nc(Sc2ccc(S(=O)(=O)C(C)(C)c3cccc([N+](=O)[O-])c3F)cc2F)nc1N1CCC(OC)C1 (stereo not shown)
COc1c(Nc2cc(C)[nH]n2)nc(Sc2ccc(S(=O)(=O)C(C)(C)c3cccc([N+](=O)[O-])c3F)cc2F)nc1N1CCC(CCO)CC1
COCCC1CCN(c2nc(Sc3ccc(S(=O)(=O)C(C)(C)c4cccc([N+](=O)[O-])c4F)cc3F)nc(Nc3cc(C)[nH]n3)c2OC)CC1
COc1c(Nc2cc(C)[nH]n2)nc(Sc2ccc(S(=O)(=O)C(C)(C)c3cccc([N+](=O)[O-])c3F)cc2F)nc1N1CCN(C(=O)CN(C)C)CC1
COc1c(Nc2cc(C)[nH]n2)nc(Sc2ccc(S(=O)(=O)C(C)(C)c3c(F)c(F)cc(Cl)c3F)cc2F)nc1N1CCOCC1
COc1c(Nc2cc(C)[nH]n2)nc(Sc2ccc(S(=O)(=O)C(C)(C)c3cccc([N+](=O)[O-])c3F)cc2F)nc1N1CCC(CCN)CC1
COc1c(Nc2cc(C)[nH]n2)nc(Sc2ccc(S(=O)(=O)Cc3c(F)c(F)c(F)c(F)c3F)cc2F)nc1N1CCOCC1
CNCCC1CCN(c2nc(Sc3ccc(S(=O)(=O)C(C)(C)c4cccc([N+](=O)[O-])c4F)cc3F)nc(Nc3cc(C)[nH]n3)c2OC)CC1
COc1c(Nc2cc(C)[nH]n2)nc(Sc2ccc(S(=O)(=O)C(C)(C)c3c(F)c(F)c(F)c(F)c3F)cc2F)nc1N1CCOCC1
COc1c(Nc2cc(C)[nH]n2)nc(Sc2ccc(S(=O)(=O)C(C)(C)C)cc2)nc1N1CCN(CCN(C)C)CC1
COc1c(Nc2cc(C)[nH]n2)nc(Sc2ccc(S(=O)(=O)C(C)(C)c3cccc([N+](=O)[O-])c3F)cc2F)nc1N1CCC(NC(C)=O)CC1
COc1c(Nc2cc(C)[nH]n2)nc(Sc2ccc(S(=O)(=O)C(C)(C)c3cccc([N+](=O)[O-])c3F)cc2F)nc1N1CC[C@H](NC(C)=O)C1
COc1c(Nc2cc(C)[nH]n2)nc(Sc2ccc(S(=O)(=O)C(C)(C)c3cccc([N+](=O)[O-])c3F)cc2F)nc1N1CCN(CC(=O)N(C)C)CC1
COc1c(Nc2cc(C)[nH]n2)nc(Sc2ccc(S(=O)(=O)C(C)(C)c3cccc([N+](=O)[O-])c3F)cc2F)nc1N1CC[C@H](N(C)C)C1
COc1c(Nc2cc(C)[nH]n2)nc(Sc2ccc(S(=O)(=O)C(C)(C)c3cccc([N+](=O)[O-])c3F)cc2F)nc1N1CC[C@@H](N(C)C)C1
COc1c(Nc2cc(C)[nH]n2)nc(Sc2ccc(S(=O)(=O)C(C)(C)c3c(F)c(F)cc(F)c3F)cc2F)nc1N1CCC(NC(C)=O)CC1
COc1c(Nc2cc(C)[nH]n2)nc(Sc2ccc(S(=O)(=O)C(C)(C)c3c(F)c(F)cc(F)c3F)cc2F)nc1N1CC[C@H](N(C)C)C1
COc1c(Nc2cc(C)[nH]n2)nc(Sc2ccc(S(=O)(=O)C(C)(C)c3c(F)c(F)cc(F)c3F)cc2F)nc1N1CCC(CC(=O)N(C)C)CC1
COc1c(Nc2cc(C)[nH]n2)nc(Sc2ccc(S(=O)(=O)C(C)(C)c3c(F)c(F)cc(F)c3F)cc2F)nc1N1CC[C@@H](N(C)C)C1
COc1c(Nc2cc(C)[nH]n2)nc(Sc2ccc(S(=O)(=O)C(C)(C)c3c(F)c(F)c(F)c(F)c3F)cc2F)nc1N1CCC(N(C)C)CC1
COc1c(Nc2cc(C)[nH]n2)nc(Sc2ccc(S(=O)(=O)C(C)(C)c3c(F)c(F)c(F)c(F)c3F)cc2F)nc1N1CCC(CCN(C)C)CC1
COc1c(Nc2cc(C)[nH]n2)nc(Sc2ccc(S(=O)(=O)C(C)(C)c3cccc([N+](=O)[O-])c3F)cc2F)nc1N1CCC(O)C1 (stereo not shown)
COc1c(Nc2cc(C)[nH]n2)nc(Sc2ccc(S(=O)(=O)C(C)(C)c3c(F)c(F)c(F)c(F)c3F)cc2F)nc1N1CCN(CCN(C)C)CC1
COc1c(Nc2cc(C)[nH]n2)nc(Sc2ccc(S(=O)(=O)C(C)(C)c3c(F)c(F)cc(F)c3F)cc2F)nc1N1CCC(OC(C)=O)CC1
COc1ccc(CS(=O)(=O)c2ccc(Sc3nc(Nc4cc(C)[nH]n4)c(OC)c(N4CCOCC4)n3)c(F)c2)cc1
COc1ccc(CS(=O)(=O)c2ccc(Sc3nc(Nc4cc(C)[nH]n4)c(OC)c(N4CCCCC4)n3)c(F)c2)cc1
COc1c(Nc2cc(C)[nH]n2)nc(Sc2ccc(S(=O)(=O)C(C)(C)c3cccc([N+](=O)[O-])c3F)cc2F)nc1N1CCC(N(C)C(C)=O)CC1
COc1c(Nc2cc(C)[nH]n2)nc(Sc2ccc(S(=O)(=O)C(C)(C)c3c(F)c(F)cc(F)c3F)cc2F)nc1N1CCC(N(C)C(C)=O)CC1
COc1ccc(CS(=O)(=O)c2ccc(Sc3nc(Nc4cc(C)[nH]n4)c(OC)c(N4CCOCC4)n3)cc2)cc1
COc1ccc(CS(=O)(=O)c2ccc(Sc3nc(Nc4cc(C)[nH]n4)c(OC)c(N4CCCCC4)n3)cc2)cc1
COc1c(Nc2cc(C)[nH]n2)nc(Sc2ccc(S(=O)(=O)C(C)(C)c3c(F)c(F)cc([N+](=O)[O-])c3F)cc2F)nc1N1CCN(CCN(C)C)CC1
COc1c(Nc2cc[nH]n2)nc(Sc2ccc(S(=O)(=O)Cc3cccc([N+](=O)[O-])c3F)cc2F)nc1N1CCOCC1
COc1c(Nc2cc[nH]n2)nc(Sc2ccc(S(=O)(=O)Cc3cccc([N+](=O)[O-])c3F)cc2F)nc1N1CCCCC1
CNC(=O)CC1CCN(c2nc(Sc3ccc(S(=O)(=O)C(C)(C)c4cccc([N+](=O)[O-])c4)cc3F)nc(Nc3cc(C)[nH]n3)c2OC)CC1
COc1c(Nc2cc(C)[nH]n2)nc(Sc2ccc(S(=O)(=O)C(C)(C)c3cccc([N+](=O)[O-])c3F)cc2F)nc1N1CCC(N)CC1
COc1c(Nc2cc(C)[nH]n2)nc(Sc2ccc(S(=O)(=O)C(C)(C)c3cccc([N+](=O)[O-])c3F)cc2F)nc1N1CCC(CC(N)=O)CC1
